Test results reported in ChEMBL document CHEMBL4414613, “Antibacterial 5α-Spirostane Saponins from the Fruit of Cordyline manners-suttoniae” (J Nat Prod, 2019).
In brackets after ≈: the same amount, converted by molar mass. Activity calls are given as the source filed them. The rule behind the calls is not given here.

Columns and labels:
Enterococcus faecium [1] = experiment: Antibacterial activity against Enterococcus faecium C15 at 90 uM incubated for 24 hrs by microdilution assay; format: functional, organism-based
Acinetobacter baumannii [2] = experiment: Antibacterial activity against Acinetobacter baumannii ATCC 19606 at 90 uM incubated for 24 hrs by microdilution assay; format: functional, organism-based; conditions: ATCC 19606 = CIP 70.34 = JCM 6841
Acinetobacter baumannii [3] = experiment: Antibacterial activity against Acinetobacter baumannii ATCC 17978 at 90 uM incubated for 24 hrs by microdilution assay; format: functional, organism-based
[4] = Selectivity ratio of IC50 for human HaCaT cells to IC50 for human HDF cells by CellTiter 96 aqueous one solution assay
Pseudomonas aeruginosa [5] = experiment: Bactericidal activity against Pseudomonas aeruginosa ATCC 10145 at 90 uM incubated for 24 hrs by microdilution assay; format: functional, organism-based
NHDF [6] = experiment: Cytotoxicity against human HDF cells assessed as reduction in cell viability at 100 uM incubated for 7 days by CellTiter 96 aqueous one solution assay; format: functional, cell-based
Staphylococcus aureus [7] = experiment: Bactericidal activity against Staphylococcus aureus ATCC 25923 at 90 uM incubated for 24 hrs by microdilution assay; format: functional, organism-based
Klebsiella pneumoniae [8] = experiment: Bactericidal activity against Klebsiella pneumoniae ATCC 13883 at 90 uM incubated for 24 hrs by microdilution assay; format: functional, organism-based
Enterococcus faecium [9] = experiment: Antibacterial activity against Enterococcus faecium ATCC 35667 at 90 uM incubated for 24 hrs by microdilution assay; format: functional, organism-based
Staphylococcus aureus [10] = experiment: Bactericidal activity against Staphylococcus aureus ATCC 29247 at 90 uM incubated for 24 hrs by microdilution assay; format: functional, organism-based
Acinetobacter baumannii [11] = experiment: Bactericidal activity against Acinetobacter baumannii ATCC 19606 at 90 uM incubated for 24 hrs by microdilution assay; format: functional, organism-based; conditions: ATCC 19606 = CIP 70.34 = JCM 6841
[12] = system: Enterobacter cloacae subsp. cloacae; experiment: Antibacterial activity against Enterobacter cloacae ATCC 13047 at 90 uM incubated for 24 hrs by microdilution assay; format: functional
HaCaT [13] = experiment: Cytotoxicity against human HaCaT cells assessed as reduction in cell viability at 100 uM incubated for 4 days by CellTiter 96 aqueous one solution assay; format: cell-based; conditions: 96 h
Staphylococcus aureus [14] = experiment: Antibacterial activity against Staphylococcus aureus ATCC 29247 at 90 uM incubated for 24 hrs by microdilution assay; format: functional, organism-based
Klebsiella aerogenes [15] = experiment: Antibacterial activity against Enterobacter aerogenes ATCC 13048 at 90 uM incubated for 24 hrs by microdilution assay; format: functional
Pseudomonas aeruginosa [16] = experiment: Antibacterial activity against Pseudomonas aeruginosa ATCC 49189 at 90 uM incubated for 24 hrs by microdilution assay; format: functional, organism-based
Acinetobacter baumannii [17] = experiment: Bactericidal activity against Acinetobacter baumannii ATCC 17978 at 90 uM incubated for 24 hrs by microdilution assay; format: functional, organism-based
Staphylococcus aureus [18] = experiment: Antibacterial activity against Staphylococcus aureus ATCC 25923 at 90 uM incubated for 24 hrs by microdilution assay; format: functional, organism-based
Klebsiella aerogenes [19] = experiment: Bactericidal activity against Enterobacter aerogenes ATCC 13048 at 90 uM incubated for 24 hrs by microdilution assay; format: functional
Klebsiella pneumoniae [20] = experiment: Antibacterial activity against Klebsiella pneumoniae ATCC 13883 at 90 uM incubated for 24 hrs by microdilution assay; format: functional, organism-based
Enterococcus faecium [21] = experiment: Bactericidal activity against Enterococcus faecium ATCC 35667 at 90 uM incubated for 24 hrs by microdilution assay; format: functional, organism-based
Pseudomonas aeruginosa [22] = experiment: Bactericidal activity against Pseudomonas aeruginosa ATCC 49189 at 90 uM incubated for 24 hrs by microdilution assay; format: functional, organism-based
Enterococcus faecium [23] = experiment: Bactericidal activity against Enterococcus faecium C15 at 90 uM incubated for 24 hrs by microdilution assay; format: functional, organism-based
Klebsiella pneumoniae [24] = experiment: Bactericidal activity against Klebsiella pneumoniae ATCC 12657 at 90 uM incubated for 24 hrs by microdilution assay; format: functional, organism-based
Klebsiella pneumoniae [25] = experiment: Antibacterial activity against Klebsiella pneumoniae ATCC 12657 at 90 uM incubated for 24 hrs by microdilution assay; format: functional, organism-based
Pseudomonas aeruginosa [26] = experiment: Antibacterial activity against Pseudomonas aeruginosa ATCC 10145 at 90 uM incubated for 24 hrs by microdilution assay; format: functional, organism-based
[27] = system: Enterobacter cloacae subsp. cloacae; experiment: Bactericidal activity against Enterobacter cloacae ATCC 13047 at 90 uM incubated for 24 hrs by microdilution assay; format: functional
Enterococcus faecium [28] = experiment: Antibacterial activity against Enterococcus faecium ATCC 35667 incubated for 24 hrs by microdilution assay; format: functional
Enterococcus faecium [29] = experiment: Bactericidal activity against Enterococcus faecium ATCC 35667 incubated for 24 hrs by microdilution assay; format: functional; conditions: ATCC 35667, 24 h
NHDF [30] = experiment: Cytotoxicity against human HDF cells assessed as reduction in cell viability incubated for 7 days by CellTiter 96 aqueous one solution assay; format: functional, cell-based; conditions: 168 h
Staphylococcus aureus [31] = experiment: Antibacterial activity against Staphylococcus aureus ATCC 25923 incubated for 24 hrs by microdilution assay; format: functional
Staphylococcus aureus [32] = experiment: Bactericidal activity against Staphylococcus aureus ATCC 29247 incubated for 24 hrs by microdilution assay; format: functional; conditions: ATCC 29247, 24 h
Staphylococcus aureus [33] = experiment: Bactericidal activity against Staphylococcus aureus ATCC 25923 incubated for 24 hrs by microdilution assay; format: functional; conditions: ATCC 25923, 24 h
HaCaT [34] = experiment: Cytotoxicity against human HaCaT cells assessed as reduction in cell viability incubated for 4 days by CellTiter 96 aqueous one solution assay; format: cell-based; conditions: 96 h
Staphylococcus aureus [35] = experiment: Antibacterial activity against Staphylococcus aureus ATCC 29247 incubated for 24 hrs by microdilution assay; format: functional
Enterococcus faecium [36] = experiment: Bactericidal activity against Enterococcus faecium C15 incubated for 24 hrs by microdilution assay; format: functional; conditions: C15, 24 h
Enterococcus faecium [37] = experiment: Antibacterial activity against Enterococcus faecium C15 incubated for 24 hrs by microdilution assay; format: functional
Enterococcus faecium [38] = experiment: Bactericidal activity against Enterococcus faecium C15 up to 86.8 uM incubated for 24 hrs by microdilution assay; format: functional, organism-based
Enterococcus faecium [39] = experiment: Bactericidal activity against Enterococcus faecium ATCC 35667 up to 86.8 uM incubated for 24 hrs by microdilution assay; format: functional, organism-based
Staphylococcus aureus [40] = experiment: Bactericidal activity against Staphylococcus aureus ATCC 29247 up to 86.8 uM incubated for 24 hrs by microdilution assay; format: functional, organism-based
Staphylococcus aureus [41] = experiment: Bactericidal activity against Staphylococcus aureus ATCC 25923 up to 86.8 uM incubated for 24 hrs by microdilution assay; format: functional, organism-based

Row | Structure (SMILES) | Activity (Acinetobacter baumannii [2]) | Activity (Acinetobacter baumannii [3]) | Ratio IC50 [4] | Activity (Pseudomonas aeruginosa [5]) | Activity (Staphylococcus aureus [7]) | Activity (Klebsiella pneumoniae [8]) | Activity (Staphylococcus aureus [10]) | Activity (Acinetobacter baumannii [11]) | Activity [12] | Activity (Klebsiella aerogenes [15]) | Activity (Pseudomonas aeruginosa [16]) | Activity (Acinetobacter baumannii [17]) | Activity (Klebsiella aerogenes [19]) | Activity (Klebsiella pneumoniae [20]) | Activity (Enterococcus faecium [21]) | Activity (Pseudomonas aeruginosa [22]) | Activity (Klebsiella pneumoniae [24]) | Activity (Klebsiella pneumoniae [25]) | Activity (Pseudomonas aeruginosa [26]) | Activity [27] | also measured
1 | C[C@@H]1CC[C@]2(OC1)O[C@H]1C[C@H]3[C@@H]4CC[C@H]5C[C@@H](O)C[C@@H](O[C@@H]6OC[C@H](O)[C@H](O)[C@H]6O)[C@]5(C)[C@H]4CC[C@]3(C)[C@H]1[C@@H]2C | inactive | inactive | 3 - 11 | inactive | inactive | inactive | inactive | inactive | inactive | inactive | inactive | inactive | inactive | inactive | inactive | inactive | inactive | inactive | inactive | inactive | Activity (Enterococcus faecium [1]): inactive; Activity (NHDF [6]): inactive; Activity (Enterococcus faecium [9]): inactive; Activity (HaCaT [13]): Not Active; Activity (Staphylococcus aureus [14]): inactive; Activity (Staphylococcus aureus [18]): inactive; Activity (Enterococcus faecium [23]): inactive
2 | C[C@@H]1CC[C@]2(OC1)O[C@H]1C[C@H]3[C@@H]4CC[C@H]5C[C@@H](O)C[C@@H](O[C@@H]6O[C@H](C)[C@H](O)[C@H](O)[C@H]6O)[C@]5(C)[C@H]4CC[C@]3(C)[C@H]1[C@@H]2C | inactive | inactive | 3 - 11 | inactive | – | inactive | – | inactive | inactive | inactive | inactive | inactive | inactive | inactive | – | inactive | inactive | inactive | inactive | inactive | MIC75 (Enterococcus faecium [28]): 21.6 µM (≈ 12.5 µg/mL); MBC (Enterococcus faecium [29]): 43.2 µM (≈ 25 µg/mL); IC50 (NHDF [30]): 4.3 µM; MIC75 (Staphylococcus aureus [31]): 21.6 µM (≈ 12.5 µg/mL); MBC (Staphylococcus aureus [32]): 21.6 µM (≈ 12.5 µg/mL); MBC (Staphylococcus aureus [33]): 21.6 µM (≈ 12.5 µg/mL); IC50 (HaCaT [34]): 18.2 µM; MIC75 (Staphylococcus aureus [35]): 21.6 µM (≈ 12.5 µg/mL); MBC (Enterococcus faecium [36]): 43.2 µM (≈ 25 µg/mL); MIC75 (Enterococcus faecium [37]): 21.6 µM (≈ 12.5 µg/mL)
3 | C=C1CC[C@]2(OC1)O[C@H]1C[C@H]3[C@@H]4CC[C@H]5C[C@@H](O)C[C@@H](O[C@@H]6O[C@H](C)[C@H](O)[C@H](O)[C@H]6O)[C@]5(C)[C@H]4CC[C@]3(C)[C@H]1[C@@H]2C | inactive | inactive | 3 - 11 | inactive | inactive | inactive | inactive | inactive | inactive | inactive | inactive | inactive | inactive | inactive | inactive | inactive | inactive | inactive | inactive | inactive | Activity (Enterococcus faecium [38]): inactive; MIC75 (Enterococcus faecium [28]): 21.7 µM (≈ 12.5 µg/mL); Activity (Enterococcus faecium [39]): inactive; IC50 (NHDF [30]): 4.2 µM; MIC75 (Staphylococcus aureus [31]): 5.4 µM (≈ 3.11 µg/mL); Activity (Enterococcus faecium [23]): inactive; IC50 (HaCaT [34]): 23.9 µM; MIC75 (Staphylococcus aureus [35]): 5.4 µM (≈ 3.11 µg/mL); Activity (Staphylococcus aureus [40]): inactive; MIC75 (Enterococcus faecium [37]): 21.7 µM (≈ 12.5 µg/mL); Activity (Staphylococcus aureus [41]): inactive
4 | C=C1CC[C@]2(OC1)O[C@H]1C[C@H]3[C@@H]4CC[C@H]5C[C@@H](O)C[C@@H](O[C@@H]6OC[C@H](O)[C@H](O)[C@H]6O)[C@]5(C)[C@H]4CC[C@]3(C)[C@H]1[C@@H]2C | inactive | inactive | 3 - 11 | inactive | inactive | inactive | inactive | inactive | inactive | inactive | inactive | inactive | inactive | inactive | inactive | inactive | inactive | inactive | inactive | inactive | Activity (Enterococcus faecium [1]): inactive; Activity (NHDF [6]): inactive; Activity (Enterococcus faecium [9]): inactive; Activity (HaCaT [13]): Not Active; Activity (Staphylococcus aureus [14]): inactive; Activity (Staphylococcus aureus [18]): inactive; Activity (Enterococcus faecium [23]): inactive
